Experiments:
[1] = system: PHF-type tau hyperphosphorylation; test: Titration of tau hyperphosphorylation inhibitors in okadaic acid-stimulated rat hippocampal brain slice model; format: cell-based; conditions: okadaic acid provocation of PHF-markers
Description: Authentic PHF-type phosphorylation events virtually indistinguishable by all known molecular markers from what is seen in PHF-tau from human Alzheimer's disease brains is rapidly provoked in such brain slices by application of the phosphatase inhibitor okadaic acid (OA) [Gong et al., Brain Res. Brain Res. Protoc., 6, 134-140 (2001); WO 01/57535; WO 00/01699].
In okadaic acid-treated brain slices, most of the above pathological markers are modeled. For the detection of active inhibitor compounds, freshly prepared metabolically-active isolated slices, kept under constant oxygenation in a physiological buffer (artificial cerebrospinal fluid or Krebs-Ringer solution), are preincubated with a range of concentration of the compounds of general formula 1. The slices are then extracted with buffers stopping both kinase as well as phosphatase activities, and soluble supernatants of such tissue homogenates are then separated by SDS-PAGE and subjected to Western-blotting. […] The intensity of the signals can then be normalized to the amount of total tau in the sample by probing a sister blot with a phosphorylation insensitive tau antibody, followed by forming the intensity ratio of the respective phosphoepitope over total tau immunoreactivity which represent an accurate quantitative measure of the degree of phosphorylation defining a particular epitope. […]

[2] = cited from earlier work

| Compound | activity in the brain slice hyperphosphorylation model [1] | brain/plasma ratio ([2]; concentration in brain over concentration in plasma at a given time point) | maximal oral bioavailability ([2]; rats, oral) |
| --- | --- | --- | --- |
| CCSCc1ccc2c(c1)c1c3c(c4c5cc(CSCC)ccc5n5c4c1n2[C@H]1C[C@](O)(C(=O)OC)[C@]5(C)O1)CNC3=O [CEP-1347] | inactive |  |  |
| COC(=O)[C@@]1(O)C[C@H]2O[C@]1(C)n1c3ccccc3c3c4c(c5c6ccccc6n2c5c31)C(=O)NC4 [K252a] |  | below 1 | 13% |
| CN[C@@H]1C[C@H]2O[C@@](C)([C@@H]1OC)n1c3ccccc3c3c4c(c5c6ccccc6n2c5c31)C(=O)NC4 [staurosporine] | inactive |  |  |

From patent US8003631B2, “Composition and method for the treatment of tauopathies” (Tautatis, Inc., priority 2004, dated 2011)
